Reference: publication PMC5861052, “Uptake and accumulation of Microcystin-LR based on exposure through drinking water: An animal model assessing the human health risk” (Scientific Reports, 2018)
“And” between values parts separate entries of the source, which are not always exact repeats. Identical values can stand only once.

Legend:
[1] = format: in vivo; conditions: pig
Protocol: (§1) This study was performed as described previously using twelve male Duroc pigs, six control and six treated pigs. Housing, diet and treatment were as described previously with the following modifications:
(§2) Animals were subjected to a fourteen-day acclimatization period prior to assignment to control or treated groups. Over the study period, each animal from the treatment group received a daily dose of 2 µg toxin/kg body weight MC-LR by oral gavage, 50 times the provisional WHO TDI, with the average dose for the six treated animals outlined in Table 4
(§3) , with the MC-LR for dosing prepared as described above. At day 40 (approximately 5 weeks) treated and control animals were euthanized. Sample collection and storage was as outlined for experiment 1.
(§4) Porcine tissue samples (50 mg) were weighed into 50 mL round bottomed flasks with the conversion and subsequent enrichment of MMPB carried out as outlined in ‘Analysis of conjugated MC-LR in porcine tissue’ (see Supplementary Information online). Samples were initially screened for MMPB, with any samples found to contain toxin quantified by use of a six point extracted matrix matched calibration curve in the range 0.010–0.25 µg/g dw using pooled control tissue of the relevant tissue, with calibrant levels achieved by spiking with the MMPB standard at a concentration of either 0.5 or 0.05 µg/mL after pH adjustment.
Conversion of any bound MC-LR and subsequent extraction was performed according to a modified method derived from Neffling et al. (2010) and developed using 50 mg aliquots of lyophilised homogenised, pooled porcine tissue from the control animals. 50 mg of tissue was weighed into a 50 mL round bottomed flask and 5 mL of oxidation solution at a concentration of 0.1 M was added, comprising both potassium permanganate (KMnO4) and sodium (meta) periodate (NaIO4) at 0.2 M mixed 1:1 v/v. The mixture was stirred at room temperature for 2 h whereby the colour of the solution turned from purple (colour of KMnO4) to red/brown (colour of the reduced product MnO2). A further 4 mL oxidation solution at 0.1 M was added turning the solution back to purple. The reaction was immediately quenched by addition of 1 mL sodium bisulphite solution (40% v/v). Following this, samples were transferred to 15 mL tubes and 10% sulphuric acid was added drop wise until the pH was acidic (~ 2). Samples were then centrifuged at 4 500 rpm for 15 min and the supernatant removed and loaded directly onto SPE cartridges.
Sample enrichment and clean-up was carried out using OASIS PRiME HLB cartridges, with samples loaded onto the cartridges, allowed to drip through under gravity then washed with water and 20% aqueous methanol (v/v). Bound MMPB was eluted into clean glass tubes using 2 x 1.5 mL 80% aqueous methanol (v/v) and the eluents evaporated to dryness under a gentle stream of nitrogen using a turbovap set at 45 °C. Samples were reconstituted in 100 µL 80% aqueous MeOH (v/v) and transferred to a micro vial for analysis.
Analysis of MMPB was performed as described above in ‘Analysis of free MC-LR and MC-LR-GSH in porcine tissues’. Detection and quantification was achieved using MRM, with MMPB seen as the [M + H]^+ ion and the transitions optimised manually as follows:
Separation was achieved using the same column and mobile phases as detailed above in ‘Analysis of free MC-LR in porcine serum’ with the flow rate set at 0.4 ml/min. The gradient used to achieve separation was as described above with the ACN initially held at 10%, then returned to 10% prior to the next injection.

[2] = Free MC-LR in porcine serum, experiment 1 (low dose), UPLC-MS/MS; conditions: pig, in vivo, po
Protocol: The animal studies were performed under licence (PPL 2755 - Chemical contaminants in food producing animals) issued by the Department of Health, Social Services and Public Safety in Northern Ireland (NI) in accordance with the Animal (Scientific Procedures) Act (1986), and under the approval of the Agri-Food and Biosciences Institute (AFBI) Animal Welfare and Ethical Review Body (AWERB) and associated EU Directive 2010/63/EU for animal experiments. The study was performed on behalf of Queen’s University Belfast (QUB) by the Veterinary Sciences Division, Agri-Food and Biosciences Institute, Belfast, Northern Ireland. […]
Following the acclimatization period of seven days, eight healthy pigs were selected randomly for the control group and the remaining eight healthy pigs assigned to the treatment group. Before treatment, animals were examined by a veterinarian to confirm clinical health and then weighed, with the weight and identification of animals in each group recorded. […]
Analysis was performed using an ACQUITY UPLC i-Class system coupled to a Xevo TQ-S (triple quadrupole MS/MS) Mass Spectrometer (Waters, Manchester, UK). Detection and quantification was achieved using targeted analysis using Multiple Reaction Monitoring (MRM) and operated in ESI^+ mode. […]

[3] = Free MC-LR in porcine tissues, experiment 1 (low dose), UPLC-MS/MS; conditions: pig, in vivo, po
From the text: (§5) Following the acclimatization period of seven days, eight healthy pigs were selected randomly for the control group and the remaining eight healthy pigs assigned to the treatment group. Before treatment, animals were examined by a veterinarian to confirm clinical health and then weighed, with the weight and identification of animals in each group recorded. Over the study period (13 weeks), each animal from the treatment group received a low dose of MC-LR daily by oral gavage. The dose administered was 0.04 µg toxin/kg body weight, the provisional World Health Organization Tolerable Daily Intake (WHO TDI), based on the NOAEL derived from the animal experiment conducted by Fawell et al. (1999), with the average dose for the eight treated animals outlined in Table 3. Briefly, a 1 mg/mL solution of MC-LR was prepared by the addition of 250 µL of ethanol followed by 750 µL water. The appropriate dilutions were then performed depending on the weight of the animal to ensure the correct dose was administered in 5 mL of water.
Serum was collected weekly, starting at day -7 from treated and control animals as the pre-bleeds. […]
(§6) In order to quantify any toxins identified, a six-point extracted matrix-matched calibration curve in the range 0.001–0.1 μg/g dw was prepared using pooled control samples of the relevant tissue. […]

[4] = Bound MC-LR (MMPB) in porcine liver by Lemieux oxidation, experiment 1; conditions: pig, in vivo, po
From the text: as §5, with “Briefly, a 1 mg/mL solution of MC-LR was prepared by the addition of 250 µL of ethanol followed by 750 µL water. The appropriate dilutions were then performed depending on the weight of the animal to ensure the correct dose was administered in 5 mL of water.” left out
as §4, with “adjustment. […]” for “adjustment.”

[5] = Free MC-LR in porcine serum, experiment 2 (high dose), UPLC-MS/MS; conditions: pig, in vivo, po
Protocol: as §1, §2
, with the MC-LR for dosing prepared as described above. At day 40 (approximately 5 weeks) treated and control animals were euthanized. Sample collection and storage was as outlined for experiment 1. […]
Analysis was performed using an ACQUITY UPLC i-Class system coupled to a Xevo TQ-S (triple quadrupole MS/MS) Mass Spectrometer (Waters, Manchester, UK). Detection and quantification was achieved using targeted analysis using Multiple Reaction Monitoring (MRM) and operated in ESI^+ mode. Analyte precursor ions were identified as [M + H]^+ for both MC-LR and NOD (IS) with the quantifying (Q) and qualifying (q) ions used as follows:
To quantify any MC-LR detected, a seven point extracted matrix matched calibration curve in the range 0.2-100 ng/mL serum was prepared using the ‘negative’ porcine serum. […]

[6] = Free MC-LR in porcine tissues, experiment 2 (high dose), UPLC-MS/MS; conditions: pig, in vivo, po
Protocol: as §1, §2, §3
Tissue samples (see Supplementary Information online) (100 mg) were spiked with 10 μL of the NOD (IS) at 0.5 μg/mL and extracted by addition of 1.5 mL of 80% aqueous MeOH (v/v) (0.5% acetic acid v/v), vortex mixed briefly and sonicated at 35–40 °C for 45 min before centrifugation at 16 000 g for 15 min. […]
as §6

[7] = Parent ion scan of Adda fragment (m/z 135) in porcine serum; conditions: pig, in vivo
Protocol: With MC-LR and its congeners, as well as any potential metabolites of MC-LR having in common the shared Adda group ((2S, 3S, 8S, 9S)-3-amino-9-methoxy-2, 6, 8-trimethyl-10-phenyldeca-4(E), 6(E)-dienoic acid) (Fig. 1)[8], serum samples were analysed for parent ions of Adda, with this fragment having an m/z of 135. This was optimised using the MC-LR standard and indicated a peak at the same retention time as when analysed in MRM mode, with the retention window extended to allow identification of any potential MC-LR metabolites.
A selection of serum sample time points from experiment (1) were chosen (n = 32), with; t = 14, t = 42, t = 70 and t = 98 correlating to the start, one, two and three months of treatment for each animal, as well as serum from all time points (n = 36) for each animal from experiment (2).

[8] = in vivo, cited from earlier work
Protocol: Looking at the study by Tencalla et al. (1997) in which rainbow trout were dosed with MC-LR also via oral gavage, they estimated the uptake of MC-LR into blood to be approximately 4.4% of the dose administered of 5700 µg MC-LR/kg bw[51]. Based on the findings reported by Tencalla et al. and taking the average bodyweight of the six animals in the final week of dosing in experiment (2) of our study, the average dose administered to the six animals equates to 96 µg of MC-LR per day for the last week. […].

[9] = mouse, in vivo, iv; cited from earlier work
Protocol: […]. In another experiment conducted by Robinson et al. (1991) using radiolabelled MC-LR to track its distribution in mice, levels of radiolabelled MC-LR peaked in the liver after only 30 min[52], although in this case the mice were injected intravenously via the tail vein rather than by oral g ...

Compound	concentration of MMPB detected in liver (average estimated value) ([1]; livers of T2, T4 and T5, MC-LR oral gavage 2 µg/kg bw daily, Lemieux oxidation, dry weight)	free MC-LR in serum [2]	free MC-LR in liver, kidney, large and small intestine tissues [3]	bound MC-LR (MMPB) in liver tissue [4]	free MC-LR in serum [5]	free MC-LR in all other tissue samples (liver, kidney, small and large intestine, spleen, brain) [6]	MC-LR present in liver ([1]; in vivo)	Uptake of MC-LR by liver as percentage of the dose administered ([1]; in vivo)	average amount of bound MC-LR accumulated in liver ([1]; in vivo)	average uptake of MC-LR by liver as percentage of total dose administered ([1]; in vivo)	estimated bound MC-LR in liver (average) ([1]; in vivo)	peaks in parent ion scan of Adda fragment m/z 135 in serum (free MC-LR or MC-LR metabolites) [7]	uptake of MC-LR into blood as percentage of dose administered ([8]; po)	uptake of MC-LR into the liver ([8]; po)	half-life in the blood [8]	time after which the liver indicated the presence of MC-LR [8]	time of maximum levels in the liver after exposure [8]	time at which levels of radiolabelled MC-LR peaked in the liver [9]
COC(Cc1ccccc1)C(C)C(=O)O (stereo not drawn) [MMPB, 2-methyl-3-methoxy-4-phenylbutyric acid]	14.4 ng/g dw																	
Microcystin-LR [MC-LR]		< 0.03 ng/mL	none of the tissues contained any trace	negative	negative	free of MC-LR residues	23.1 µg and 21.9 µg and 34.1 µg	1.1% and 0.8% and 1.5%	26.4 ± 5.5 µg	1.1%	23.2 ng/g ww	negative	approximately 4.4%	1.7%	3.3 h	1 h	3 h	30 min
